Reference: patent US11845984B2, “Methods for obtaining and correcting biological sequence information” (CYGNUS BIOSCIENCES (BEIJING) CO., LTD., priority 2015, dated 2023)

Test: Spectral (optical) properties of fluorophores
Type: physicochemical
Method: Although Me-FAM has similar maximum emission wavelength as TG, the extinction coefficient and quantum yield of Me-FAM are much lower (FIG. 8). At the same time, the broad emission spectrum of Me-FAM greatly overlapped with other fluorophores like Me-HCF, which makes it inapplicable for multi-color sequencing application in future. Instead, the strong fluorescence and narrower spectrum of TG will tackle the problem more easily.
First, the spectrums of TG-dA4P were measured at room temperature. For emission measurement: set excitation wavelength at 460 nm, scan 480 to 600 nm for emission; for absorption measurement: scan 310 to 550 nm. Then CIP and PDE were added and spectrum was recorded sequentially at the same condition.

Structure (SMILES): Cc1ccccc1-c1c2ccc(=O)cc-2oc2cc(O)ccc12 [TG, Tokyo Green]
- Emission max: 513 nm
- Excitation max: 490 nm
- Extinction coefficient: 8 × 10^4
- Quantum Yield: 82%
- fluorescence quantum yield (at 490 nm): 0.82
